The source of these data is patent publication US20100104509A1, “HUMAN ANTIBODIES THAT BIND CD19 AND USES THEREOF” (Medarex, Inc., priority 2006, published 2010).

The test concerns B-cells (CD22) in human whole blood. In words: Whole blood B-cell depletion assay. The class given is cell-based. To be noted: overnight 37° C.; for % Change: B-cell depletion vs non-treated group. On the procedure: To determine if the anti-CD19 antibodies were capable of depleting B-cells, a whole blood B-cell depletion assay was set up.
Human whole blood was purchased from AllCells Inc. (Berkeley, Calif.) and delivered the same day at room temperature. Two ml of whole blood was incubated in the absence or presence of […] of the indicated antibodies, or PBS as the untreated group. The blood-antibody mixture was incubated overnight at 37° C. with 5% CO2. On the day of the experiment, the blood was lysed twice with RBC lysis buffer at 1:10 ratio by incubating for 10 minutes followed by centrifugation. After the second spin, the cell pellets were washed once with FACS buffer (PBS plus Calcium and Magnesium with 2% FBS and 20% versene), and followed by FAGS staining with anti-CD3 antibody (Becton Dickinson) as the T-Cell makers and anti-CD22 antibody (Becton Dickinson) as a B-cell makers using standard Flow cytometry protocols. Cells were incubated on ice for 20 min prior to the final washes and resuspended in […] propidium iodide solution (Sigma) in FACS buffer. Data was collected by flow cytometry using a FASCalibur system and CellQuest software by Becton Dickinson, and analyzed via FlowJo software using lymphocyte size gating. Percent change was calculated by determining the % positive B-cells in the non-treated group minus the % positive B-cells in the antibody treated group divided by % positive B-cells in the non treated group times 100. From a healthy blood donor, 8.7% B-cells remained in the blood following an overnight incubation (no antibody). Incubating whole blood with […] of positive control Rituxan led to a 46% depletion in the number of B-cells when compared to the untreated, no antibody group.

Consider “Rituxan: positive control in the whole blood B-cell depletion assay [reference compound]”, for which the “% Change” value was 46%. Moreover, the “% Change” value (listed as Rituxan ®) was 46.3%. The “% Positive (CD22)” value (1-30 mg/ml antibody) is recorded as 4.7%.
